Here are results for 53 compounds from ChEMBL document CHEMBL1152804, “Relationship between brain tissue partitioning and microemulsion retention factors of CNS drugs” (J Med Chem, 2009).

The logP is a log measure of how a compound divides between an organic and an aqueous phase. Usually logD stands for lipophilicity at a set pH, counting ionised and neutral species. Low readings indicate a more hydrophilic compound, high ones a more lipophilic compound. For orientation: fraction unbound means free concentration divided by total concentration. Broadly, the pKa is the negative logarithm of the acid dissociation constant. A higher pKa goes with a weaker acid or stronger base.

Data set [1] in a line: Lipophilicity, log P of the compound. The data set is classed as physicochemical. The settings on record: octanol/water.
Data set [2] in a line: Lipophilicity, log P by microemulsion electrokinetic chromatography. The data set is classed as physicochemical.
A short description of data set [3]: Lipophilicity, log D at pH 7.4 by liquid chromatography. In kind it is physicochemical. To be noted: buffer.
A short description of data set [4]: Fraction unbound in rat brain. In kind it is ADME, tissue-based.
Data set [5] can be described thus: Dissociation constant, pKa by capillary electrophoresis. The data set is classed as physicochemical.
Data set [6] is described as follows: Dissociation constant, pKa by mass spectrometry. In kind it is physicochemical.

Structures are written as SMILES.

In the case of `CNC(=C[N+](=O)[O-])NCCSCc1ccc(CN(C)C)o1` [RANITIDINE], the logP in data set [1] (read-out: logP) is 1.28; in data set [2] (read-out: logP), 1.06.

In turn, `NC12CC3CC(CC(C3)C1)C2` [AMANTADINE] had a logD in data set [3] of less than 0. In addition, the logP in data set [2] (read-out: logP) is 2.82. The compound further had a fraction unbound in data set [4] of 0.233.

For the compound `CN1CCN2c3ncccc3Cc3ccccc3C2C1` (stereo not given) [MIRTAZAPINE], the values for the pKa in data set [5] and in data set [6] were 7.79 and 3.59, respectively. In data set [3], this compound returned a logD of 2.3. In addition, the logP in data set [2] (read-out: logP) was found to be 3.48. The compound also had a fraction unbound in data set [4] of 0.08.

For the compound `COCCc1ccc(OCC(O)CNC(C)C)cc1` (stereo not given) [METOPROLOL], the logP in data set [2] (read-out: logP) is 2.08.

Consider `CN1C(C(=O)Nc2ccccn2)=C(O)c2ccccc2S1(=O)=O` [PIROXICAM], for which the logP came out at 1.68 in data set [1] (read-out: logP) and 1.45 in data set [2] (read-out: logP).

On to `NC(=O)N1c2ccccc2C=Cc2ccccc21` [CARBAMAZEPINE], for which the figures for the logP in data set [1] (read-out: logP) and in data set [2] (read-out: logP) were 2.34 and 2.29, respectively.

For `CN1CCOC(c2ccccc2)c2ccccc2C1` (stereo not given) [NEFOPAM], the logP in data set [1] (read-out: logP) was 3.02; in data set [2] (read-out: logP), 3.2.

`CN(C)CCC=C1c2ccccc2COc2ccccc21` [DOXEPIN] gave a pKa in data set [5] of 9.37. The same compound yielded a logD in data set [3] of 2.3. In addition, the logP in data set [1] (read-out: logP) is 4.29; in data set [2] (read-out: logP), 4.07. Also, the fraction unbound in data set [4] was determined as 0.025.

For the compound `CCOC(=O)c1ccc(N)cc1` [BENZOCAINE], the figures for the logP in data set [1] (read-out: logP) and in data set [2] (read-out: logP) were 1.89 and 1.79, respectively.

In the case of `CC(NC(C)(C)C)C(=O)c1cccc(Cl)c1` (stereo not given) [BUPROPION], the logP is 3.21 in data set [1] (read-out: logP) and 3.76 in data set [2] (read-out: logP).

As for `C[C@]12CCC(=O)C=C1CC[C@@H]1[C@@H]2[C@@H](O)C[C@@]2(C)[C@H]1CC[C@]2(O)C(=O)CO` [HYDROCORTISONE], the lipophilicity (logP) in data set [1] (read-out: logP) amounted to 1.65; in data set [2] (read-out: logP), 2.38.

Take `CNCCCC12CCC(c3ccccc31)c1ccccc12` [MAPROTILINE]: the pKa in data set [5] stood at 10.6. The logP in data set [2] (read-out: logP) worked out at 4.67. The fraction unbound in data set [4] was found to be 0.006.

Regarding `C=CCc1ccccc1OCC(O)CNC(C)C` (stereo not given) [ALPRENOLOL], the logP in data set [1] (read-out: logP) amounted to 2.99; in data set [2] (read-out: logP), 3.57.

For the compound `CN1CCC[C@H]1c1cccnc1` [NICOTINE], the values for the lipophilicity (logP) in data set [1] (read-out: logP) and in data set [2] (read-out: logP) were 1.39 and 1.22, respectively.

For the compound `COc1ccc(C(CN(C)C)C2(O)CCCCC2)cc1` (stereo not given) [VENLAFAXINE], in data set [3], the logD was determined as 1. Besides, in data set [2] (read-out: logP), the logP came out at 3.2.

With `CCCC(C)(COC(N)=O)COC(=O)NC(C)C` (stereo not given) [CARISOPRODOL], the logP in data set [2] (read-out: logP) worked out at 2.4.

Turning to `CNCCC=C1c2ccccc2CCc2ccccc21` [NORTRIPTYLINE], the logD in data set [3] was 2.8. In addition, the logP in data set [1] (read-out: logP) stood at 4.39; in data set [2] (read-out: logP) it was 4.36.

On to `Clc1ccc2c(c1)C(N1CCNCC1)=Nc1ccccc1O2` [AMOXAPINE], for which the pKa in data set [5] is 8.71; in data set [6], 3.38. For the same compound, in data set [3], the logD amounted to 2.4. For the same compound, the logP in data set [2] (read-out: logP) is 3.71. In data set [4], this compound yielded a fraction unbound of 0.01.

As for `COc1cc(NC(C)CCCN)c2ncccc2c1` (stereo not given) [PRIMAQUINE], the values for the logP in data set [1] (read-out: logP) and in data set [2] were 3 and 3.8, respectively.

Take `c1ccc(-c2ccc(C(c3ccccc3)n3ccnc3)cc2)cc1` (stereo not given) [BIFONAZOLE]: the logP in data set [2] (read-out: logP) is 5.56.

With `CCCCNc1ccc(C(=O)OCCN(C)C)cc1` [TETRACAINE], in data set [1] (read-out: logP), the logP turned out to be 3.46.

As to `COc1ccc(Cc2nccc3cc(OC)c(OC)cc23)cc1OC` [PAPAVERINE], the logP in data set [2] (read-out: logP) is 2.73.

As to `OCCOCCN1CCN(C(c2ccccc2)c2ccc(Cl)cc2)CC1` (stereo not given) [HYDROXYZINE], the logD in data set [3] stood at 3.6. The logP in data set [2] was found to be 4.

On to `COc1ccc(CN(CCN(C)C)c2ccccn2)cc1` [PYRILAMINE], for which the logP in data set [1] (read-out: logP) was 3.12.

`Cc1ccc(-c2nc3ccc(C)cn3c2CC(=O)N(C)C)cc1` [ZOLPIDEM]: in data set [3], the logD was 2.3. Moreover, in data set [2] (read-out: logP), the logP was determined as 2.2.

The compound `CCN(CC)CCNC(=O)c1cc(Cl)c(N)cc1OC` [METOCLOPRAMIDE] had a fraction unbound in data set [4] of 0.365.

As for `Cc1cc2c(s1)Nc1ccccc1N=C2N1CCN(C)CC1` [OLANZAPINE], the pKa in data set [5] was determined as 8.5; in data set [6], 4.66. Also, the logP in data set [2] (read-out: logP) turned out to be 3.21. The compound also showed a fraction unbound in data set [4] of 0.034.

For the compound `CN(C)CCC=C1c2ccccc2C=Cc2ccccc21` [CYCLOBENZAPRINE], in data set [2] (read-out: logP), the logP came out at 4.81.

Take `Clc1cccc(Cl)c1N=C1NCCN1` [CLONIDINE]: the logP in data set [1] (read-out: logP) was determined as 1.57; in data set [2] (read-out: logP), 1.08.

`Cc1ncc2n1-c1ccc(Cl)cc1C(c1ccccc1F)=NC2` [MIDAZOLAM] registered a logD in data set [3] of 3.38. The log partition coefficient (logP) in data set [2] (read-out: logP) was 3.65.

As to `COC(=O)Nc1nc2ccc(C(=O)c3ccccc3)cc2[nH]1` [MEBENDAZOLE], the logP turned out to be 2.42 in data set [1] (read-out: logP) and 2.26 in data set [2] (read-out: logP).

With `Nc1nnc(-c2cccc(Cl)c2Cl)c(N)n1` [LAMOTRIGINE], in data set [3], the logD was less than 0. In data set [2] (read-out: logP), the logP was 1.6.

With `O=C(CCCN1CCC(O)(c2ccc(Cl)cc2)CC1)c1ccc(F)cc1` [HALOPERIDOL], the values for the logP in data set [1] (read-out: logP) and in data set [2] (read-out: logP) were 3.67 and 3.53, respectively.

In data set [4], `Nc1c2c(nc3ccccc13)CCCC2` [TACRINE] yielded a fraction unbound of 0.124.

In the case of `OCCOCCN1CCN(C2=Nc3ccccc3Sc3ccccc32)CC1` [QUETIAPINE], the pKa stood at 6.91 in data set [5] and 3.64 in data set [6]. Also, the logD in data set [3] turned out to be 3.4. Further, in data set [2] (read-out: logP), the logP is 3.54. The same compound returned an unbound share (fraction unbound) in data set [4] of 0.025.

For the compound `CSc1ccc2c(c1)N(CCC1CCCCN1C)c1ccccc1S2` (stereo not given) [THIORIDAZINE], the logD in data set [3] amounted to 4.4. In data set [2], this compound came in with a logP of 4.75. In data set [4], this compound displayed a fraction unbound of 0.001.

`CC(C)NCC(O)COc1cccc2[nH]ccc12` (stereo not given) [PINDOLOL]: the logP in data set [2] (read-out: logP) amounted to 1.71.

For `CCOC(=O)c1ncn2c1CN(C)C(=O)c1cc(F)ccc1-2` [FLUMAZENIL], the logP in data set [1] (read-out: logP) is 1.64; in data set [2] (read-out: logP) it was 0.92.

With `CC(C)n1c(/C=C/C(O)CC(O)CC(=O)O)c(-c2ccc(F)cc2)c2ccccc21` (stereo not given) [FLUVASTATIN], the logP in data set [2] (read-out: logP) worked out at 3.92.

On to `OCCN1CCN(CCCN2c3ccccc3Sc3ccc(Cl)cc32)CC1` [PERPHENAZINE], for which the figures for the pKa in data set [5] and in data set [6] were 8.04 and 3.72, respectively. Also, the logD in data set [3] worked out at 4.1. The lipophilicity (logP) in data set [2] (read-out: logP) is 3.83. In addition, the fraction unbound in data set [4] came out at 0.004.

Take `Fc1ccc([C@@H]2CCNC[C@H]2COc2ccc3c(c2)OCO3)cc1` [PAROXETINE]: the logP in data set [2] (read-out: logP) came out at 4.07.

The compound `Cc1nc2n(c(=O)c1CCN1CCC(c3noc4cc(F)ccc34)CC1)CCCC2` [RISPERIDONE] came in with a logD in data set [3] of 1.71. Further, the logP in data set [2] (read-out: logP) is 2.86.

For the compound `COC(=O)C(c1ccccc1)C1CCCCN1` (stereo not given) [METHYLPHENIDATE], in data set [3], the logD worked out at 0.4. Further, the logP in data set [2] (read-out: logP) came out at 2.67.

In the case of `CCCN1C[C@H](CSC)C[C@@H]2c3cccc4[nH]cc(c34)C[C@H]21` [PERGOLIDE], the pKa in data set [5] amounted to 8.78. Moreover, the logD in data set [3] is 3. For the same compound, the logP in data set [2] (read-out: logP) came out at 4.22. Besides, the fraction unbound in data set [4] was determined as 0.027.

On to `CCN(CC)CCOC(=O)c1ccc(N)cc1` [PROCAINE], for which the logP in data set [1] (read-out: logP) is 2.2; in data set [2] (read-out: logP), 2.18.

Compound `O=c1n(CCCN2CCN(c3cccc(Cl)c3)CC2)nc2ccccn12` [TRAZODONE] yielded a logD in data set [3] of 2.99. The logP in data set [2] (read-out: logP) amounted to 2.92.

`CN1CCCCC1CCN1c2ccccc2Sc2ccc([S+](C)[O-])cc21` (stereo not given) [MESORIDAZINE] returned a pKa in data set [5] of 9.61. For the same compound, the logD in data set [3] turned out to be 1.7. Further, in data set [2] (read-out: logP), the logP turned out to be 4.26. Also, the fraction unbound in data set [4] was 0.016.

As for `O=C(c1ccccc1)c1ccc2n1CCC2C(=O)O` (stereo not given) [KETOROLAC], the logP worked out at 1.26 in data set [1] and 1.68 in data set [2].

For the compound `CN(C)CCCN1c2ccccc2Sc2ccc(Cl)cc21` [CHLORPROMAZINE], the logP in data set [1] (read-out: logP) was 4.74.

As for `CN1CCN(C2=Nc3cc(Cl)ccc3Nc3ccccc32)CC1` [CLOZAPINE], the logD in data set [3] came to 3.48. Besides, the figures for the logP in data set [1] (read-out: logP) and in data set [2] (read-out: logP) were 4.1 and 3.6, respectively.

`C[C@]12C[C@H](O)[C@H]3[C@@H](CCC4=CC(=O)CC[C@@]43C)[C@@H]1CC[C@@H]2C(=O)CO` [CORTICOSTERONE]: the lipophilicity (logP) came out at 2.2 in data set [1] (read-out: logP) and 2.9 in data set [2] (read-out: logP).

In data set [5], `CNS(=O)(=O)Cc1ccc2[nH]cc(CCN(C)C)c2c1` had a pKa of 9.68. Besides, the logD in data set [3] was less than 0. Besides, the logP in data set [2] (read-out: logP) worked out at 1.41. The fraction unbound in data set [4] turned out to be 0.724.

Regarding `CN1CCN(C2=Nc3ccccc3Oc3ccc(Cl)cc32)CC1` [LOXAPINE], the fraction unbound in data set [4] was 0.011.
